Laboratory results reported in patent US8513229B2, “4-Azetidinyl-1-phenyl-cyclohexane antagonists of CCR2” (Janssen Pharmaceutica NV, priority 2009, dated 2013).

Target: T1, CCR2 (Homo sapiens, UniProt P41597)
T1 construct: host or cells: THP-1 human monocytic cells
T1 sequence (P41597 1-360 isoform P41597-2): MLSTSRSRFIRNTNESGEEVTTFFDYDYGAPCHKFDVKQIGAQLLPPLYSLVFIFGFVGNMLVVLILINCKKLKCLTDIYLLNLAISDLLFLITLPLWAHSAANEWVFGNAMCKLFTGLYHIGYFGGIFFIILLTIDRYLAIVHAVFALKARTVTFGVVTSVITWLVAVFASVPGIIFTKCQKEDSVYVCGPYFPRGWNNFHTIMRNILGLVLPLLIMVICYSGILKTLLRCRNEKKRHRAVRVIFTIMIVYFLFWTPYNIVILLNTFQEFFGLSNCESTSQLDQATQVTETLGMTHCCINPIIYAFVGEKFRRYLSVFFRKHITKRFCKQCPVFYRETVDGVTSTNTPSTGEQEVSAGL
Test: MCP-1 Receptor Binding Assay in THP-1 Cells
Conditions: 0.5 nM 125I labeled MCP-1, 2 hours at 30° C., read-out: Inhibition of MCP-1 Binding IC50 CCR2 Binding
Protocol: MCP-1 Receptor Binding Assay in THP-1 Cells
Human monocytic cell line THP-1 cells were obtained from American Type Culture Collection (Manassas, Va., USA). […] The cell density was maintained […].
1 μM cold MCP-1 was used for nonspecific binding.

Row | SMILES | IC50
1 | O=C(CNC(=O)c1ccccc1)NC1CN(C2CCC(c3ccc4c(c3)OCO4)CC2)C1 (single isomer, unassigned) [Example 2a, N-{[1-(4-Benzo[1,3]dioxol-5-yl-cyclohexyl)-azetidin-3-ylcarbamoyl]-methyl}-benzamide] | 390 nM
2 | O=C(CNC(=O)c1cccc(C(F)(F)F)c1)NC1CN(C2CCC(c3ccc4c(c3)OCC4)CC2)C1 (single isomer, unassigned) [Example 3a, N-({1-[4-(2,3-Dihydro-benzofuran-6-yl)-cyclohexyl]-azetidin-3-ylcarbamoyl}-methyl)-3-trifluoromethylbenzamide] | 45 nM
3 | COc1ccc(C2CCC(N3CC(NC(=O)CNC(=O)c4cccc(C(F)(F)F)c4)C3)CC2)cc1 (single isomer, unassigned) [Example 7a, N-({1-[4-(4-Methoxy-phenyl)-cyclohexyl]-azetidin-3-ylcarbamoyl}-methyl)-3-trifluoromethyl-benzamide] | 50 nM
4 | CCOC(=O)c1cccc(C2CCC(N3CC(NC(=O)CNC(=O)c4cccc(C(F)(F)F)c4)C3)CC2)c1 (single isomer, unassigned) [Example 11a, 3-(4-{3-[2-(3-Trifluoromethyl-benzoylamino)-acetylamino]-azetidin-1-yl}-cyclohexyl)-benzoic acid ethyl ester] | 135 nM
5 | O=C(CNC(=O)c1cccc(C(F)(F)F)c1)NC1CN(C2CCC(c3ccc4nc[nH]c4c3)CC2)C1 (single isomer, unassigned) [Example 20a, N-({1-[4-(3H-Benzoimidazol-5-yl)-cyclohexyl]-azetidin-3-ylcarbamoyl}-methyl)-3-trifluoromethyl-benzamide] | 27 nM
6 | O=C(CNC(=O)c1cccc(C(F)(F)F)c1)NC1CN(C2CCC(O)(c3ccc4c(c3)OCO4)CC2)C1 (single isomer, unassigned) [Example 31a, N-{[1-(4-Benzo[1,3]dioxol-5-yl-4-hydroxy-cyclohexyl)-azetidin-3-ylcarbamoyl]-methyl}-3-trifluoromethyl-benzamide] | 46 nM
7 | O=C(CNC(=O)c1cccc(C(F)(F)F)c1)NC1CN(C2CCC(O)(c3ccc4c(c3)OCC4)CC2)C1 (single isomer, unassigned) [Example 33a, N-({1-[4-(2,3-Dihydro-benzofuran-6-yl)-4-hydroxy-cyclohexyl]-azetidin-3-ylcarbamoyl}-methyl)-3-trifluoromethyl-benzamide] | 25 nM
8 | COc1cccc(C2(O)CCC(N3CC(NC(=O)CNC(=O)c4cccc(C(F)(F)F)c4)C3)CC2)c1 (single isomer, unassigned) [Example 37a, N-({1-[4-Hydroxy-4-(3-methoxy-phenyl)-cyclohexyl]-azetidin-3-ylcarbamoyl}-methyl)-3-trifluoromethyl-benzamide] | 69 nM
9 | O=C(CNC(=O)c1cccc(C(F)(F)F)c1)NC1CN(C2CCC(O)(c3cccc(O)c3)CC2)C1 (single isomer, unassigned) [Example 46a, N-({1-[4-Hydroxy-4-(3-hydroxy-phenyl)-cyclohexyl]-azetidin-3-ylcarbamoyl}-methyl)-3-trifluoromethyl-benzamide] | 110 nM
10 | C#Cc1cccc(C2(O)CCC(N3CC(NC(=O)CNC(=O)c4cccc(C(F)(F)F)c4)C3)CC2)c1 (single isomer, unassigned) [Example 51a, N-({1-[4-(3-Ethynyl-phenyl)-4-hydroxy-cyclohexyl]-azetidin-3-ylcarbamoyl}-methyl)-3-trifluoromethyl-benzamide] | 228 nM
11 | CN(C)c1ccc(C2(O)CCC(N3CC(NC(=O)CNC(=O)c4cccc(C(F)(F)F)c4)C3)CC2)cc1 (single isomer, unassigned) [Example 54a, N-({1-[4-(4-Dimethylamino-phenyl)-4-hydroxy-cyclohexyl]-azetidin-3-ylcarbamoyl}-methyl)-3-trifluoromethyl-benzamide] | 62 nM

Next, values leading:

Row | IC50 | SMILES
12 | 1.2 nM | O=C(CNC(=O)c1cccc(C(F)(F)F)c1)NC1CN(C2CCC(c3ccc4c(c3)OCO4)CC2)C1 (single isomer, unassigned) [Example 1a, N-{[1-(4-Benzo[1,3]dioxol-5-yl-cyclohexyl)-azetidin-3-ylcarbamoyl]-methyl}-3-trifluoromethyl-benzamide]
13 | 33 nM | O=C(CNC(=O)c1cccc(C(F)(F)F)c1)NC1CN(C2CCC(c3ccccc3)CC2)C1 (single isomer, unassigned) [Example 4a, N-{[1-(4-Phenyl-cyclohexyl)-azetidin-3-ylcarbamoyl]-methyl}-3-trifluoromethyl-benzamide]
14 | 9 nM | O=C(CNC(=O)c1cccc(C(F)(F)F)c1)NC1CN(C2CCC(c3ccc4oc(=O)[nH]c4c3)CC2)C1 (single isomer, unassigned) [Example 5a, N-({1-[4-(2-oxo-2,3-dihydro-benzooxazol-5-yl)-cyclohexyl]-azetidin-3-ylcarbamoyl}-methyl)-3-trifluoromethyl-benzamide]
15 | 200 nM | O=C(CNC(=O)c1cccc(C(F)(F)F)c1)NC1CN(C2CCC(c3ccc4sc(=O)[nH]c4c3)CC2)C1 (single isomer, unassigned) [Example 6a, N-({1-[4-(2-Oxo-2,3-dihydro-benzothiazol-5-yl)-cyclohexyl]-azetidin-3-ylcarbamoyl}-methyl)-3-trifluoromethyl-benzamide]
16 | 85 nM | N#Cc1cccc(C2CCC(N3CC(NC(=O)CNC(=O)c4cccc(C(F)(F)F)c4)C3)CC2)c1 (single isomer, unassigned) [Example 8a, N-({1-[4-(3-Cyano-phenyl)-cyclohexyl]-azetidin-3-ylcarbamoyl}-methyl)-3-trifluoromethyl-benzamide]
17 | 440 nM | CS(=O)(=O)c1cccc(C2CCC(N3CC(NC(=O)CNC(=O)c4cccc(C(F)(F)F)c4)C3)CC2)c1 (single isomer, unassigned) [Example 14a, N-({1-[4-(3-Methanesulfonyl-phenyl)-cyclohexyl]-azetidin-3-ylcarbamoyl}-methyl)-3-trifluoromethyl-benzamide]
18 | 30 nM | N#CCc1ccc(C2CCC(N3CC(NC(=O)CNC(=O)c4cccc(C(F)(F)F)c4)C3)CC2)cc1 (single isomer, unassigned) [Example 21a, N-({1-[4-(4-Cyanomethyl-phenyl)-cyclohexyl]-azetidin-3-ylcarbamoyl}-methyl)-3-trifluoromethyl-benzamide]
19 | 340 nM | CCOC(=O)Cc1ccc(C2CCC(N3CC(NC(=O)CNC(=O)c4cccc(C(F)(F)F)c4)C3)CC2)cc1 (single isomer, unassigned) [Example 24a, [4-(4-{3-[2-(3-Trifluoromethyl-benzoylamino)-acetylamino]-azetidin-1-yl}-cyclohexyl)-phenyl]-acetic acid ethyl ester]
20 | 63 nM | O=C(CNC(=O)c1cccc(C(F)(F)F)c1)NC1CN(C2CCC(O)(c3ccc4c(c3)OCCO4)CC2)C1 (single isomer, unassigned) [Example 32a, N-({1-[4-(2,3-Dihydro-benzo[1,4]dioxin-6-yl)-4-hydroxy-cyclohexyl]-azetidin-3-ylcarbamoyl}-methyl)-3-trifluoromethyl-benzamide]
21 | 310 nM | O=C(CNC(=O)c1cccc(C(F)(F)F)c1)NC1CN(C2CCC(O)(c3ccc4nc[nH]c4c3)CC2)C1 (single isomer, unassigned) [Example 34a, N-({1-[4-(3H-Benzoimidazol-5-yl)-4-hydroxy-cyclohexyl]-azetidin-3-ylcarbamoyl}-methyl)-3-trifluoromethyl-benzamide]
22 | 190 nM | O=C(CNC(=O)c1cccc(C(F)(F)F)c1)NC1CN(C2CCC(O)(c3ccc4oc(=O)[nH]c4c3)CC2)C1 (single isomer, unassigned) [Example 35a, N-({1-[4-Hydroxy-4-(2-oxo-2,3-dihydro-benzooxazol-5-yl)-cyclohexyl]-azetidin-3-ylcarbamoyl}-methyl)-3-trifluoromethyl-benzamide]
23 | 21 nM | COc1ccc(C2(O)CCC(N3CC(NC(=O)CNC(=O)c4cccc(C(F)(F)F)c4)C3)CC2)cc1 (single isomer, unassigned) [Example 36a, N-({1-[4-Hydroxy-4-(4-methoxy-phenyl)-cyclohexyl]-azetidin-3-ylcarbamoyl}-methyl)-3-trifluoromethyl-benzamide]
24 | 190 nM | CSc1cccc(C2(O)CCC(N3CC(NC(=O)CNC(=O)c4cccc(C(F)(F)F)c4)C3)CC2)c1 (single isomer, unassigned) [Example 38a, N-({1-[4-Hydroxy-4-(3-methylsulfanyl-phenyl)-cyclohexyl]-azetidin-3-ylcarbamoyl}-methyl)-3-trifluoromethyl-benzamide]
25 | 21 nM | O=C(CNC(=O)c1cccc(C(F)(F)F)c1)NC1CN(C2CCC(c3ccc(O)cc3)CC2)C1 (single isomer, unassigned) [Example 40a, N-({1-[4-(4-Hydroxy-phenyl)-cyclohexyl]-azetidin-3-ylcarbamoyl}-methyl)-3-trifluoromethyl-benzamide]
26 | 206 nM | O=C(CNC(=O)c1cccc(C(F)(F)F)c1)NC1CN(C2CCC(O)(c3ccc(F)cc3)CC2)C1 (single isomer, unassigned) [Example 47a, N-({1-[4-(4-Fluoro-phenyl)-4-hydroxy-cyclohexyl]-azetidin-3-ylcarbamoyl}-methyl)-3-trifluoromethyl-benzamide]
27 | 413 nM | N#Cc1cccc(C2(O)CCC(N3CC(NC(=O)CNC(=O)c4cccc(C(F)(F)F)c4)C3)CC2)c1 (single isomer, unassigned) [Example 48a, N-({1-[4-(3-Cyano-phenyl)-4-hydroxy-cyclohexyl]-azetidin-3-ylcarbamoyl}-methyl)-3-trifluoromethyl-benzamide]
